# Measurements reported in ChEMBL document CHEMBL6121036, “Evaluation of Cereblon-Directing Warheads for the Development of Orally Bioavailable PROTACs” (J Med Chem, 2025).
# Calls of active or inactive are those of the source. The rule behind the calls is not given here.
# Tests used:
# [1] = biological target: T1, Protein cereblon/Bromodomain-containing protein 4 (Homo sapiens, UniProt O60885+Q96SW2); test: PROTAC activity at CRBN/Hibit-tagged BRD4 (unknown origin) expressed in HEK293 cells co-expressing LgBiT assessed as degradation of BRD4 incubated for 24 hrs by […] glo-max assay; format: cell-based
# [2] = biological target: T1, Protein cereblon/Bromodomain-containing protein 4; test: PROTAC activity at CRBN/Hibit-tagged BRD4 (unknown origin) expressed in HEK293 cells co-expressing LgBiT assessed as degradation of BRD4 incubated for 24 hrs by […] glo-max assay relative to control; format: cell-based
# [3] = biological target: T1, Protein cereblon/Bromodomain-containing protein 4; test: PROTAC activity at CRBN/Hibit-tagged BRD4 (unknown origin) expressed in HEK293 cells co-expressing LgBiT assessed as degradation rate incubated for 24 hrs by […] glo-max assay; format: cell-based
# [4] = system: MV4-11; test: Cytotoxicity against human MV4-11 cells assessed as reduction in cell viability incubated for 72 hrs by cell-titer glo assay; format: functional, cell-based; conditions: MV4-11, 72 h
# [5] = system: HD-MB03; test: Cytotoxicity against human HD-MB03 cells assessed as reduction in cell viability incubated for 72 hrs by cell-titer glo assay; format: functional, cell-based; conditions: HD-MB03, 72 h
# [6] = Kinetic aqueous solubility of the compound at pH 7.4; format: physicochemical; conditions: read-out: Kinetic_solubility
# [7] = Metabolic stability in mouse liver microsomes assessed as half life; format: ADME, Microsome; conditions: liver microsomes
# [8] = biological target: T2, Protein cereblon/Bromodomain-containing protein 4/DNA damage-binding protein 1 (Homo sapiens) (UniProt O60885+Q96SW2+Q16531); test: Binding affinity to his-tagged CRBN/DDB1/GST-tagged BRD4 (49 to 170 residues)(unknown origin) assessed as ternary complex formation (AUC) incubated for 1 hr by luminescence based Alphascreen assay; format: protein assay
# [9] = system: HEK293; test: Cytotoxicity against HEK293 cells expressing LgBiT fused HiBiT-BRD2 measured after 24 hrs by cell titer-glo assay; format: toxicity, cell-based; conditions: human, hek293, 24 h
# [10] = Cmax in female CD1 mouse at 10 mg/kg, po measured upto 24 hrs by LC-MS/MS analysis; format: ADME, organism-based; conditions: in vivo
# [11] = biological target: T3, Protein cereblon/Bromodomain-containing protein 2 (Homo sapiens) (UniProt P25440+Q96SW2); test: PROTAC activity at CRBN/Hibit-tagged CRISPR BRD2 (unknown origin) expressed in HEK293 cells coexpressing LgBiT assessed as degradation of BRD2 by […] glo-max assay; format: cell-based
# [12] = biological target: T4, Protein cereblon/Bromodomain-containing protein 3 (Homo sapiens) (UniProt Q15059+Q96SW2); test: PROTAC activity at CRBN/Hibit-tagged CRISPR BRD3 (unknown origin) expressed in HEK293 cells co-expressing LgBiT assessed as degradation of BRD3 by […] glo-max assay; format: cell-based
# [13] = biological target: T1, Protein cereblon/Bromodomain-containing protein 4; test: PROTAC activity at CRBN/Hibit-tagged CRISPR BRD4 (unknown origin) expressed in HEK293 cells co-expressing LgBiT assessed as degradation of BRD4 by […] glo-max assay; format: cell-based
# [14] = biological target: T3, Protein cereblon/Bromodomain-containing protein 2 (Homo sapiens); test: PROTAC activity at CRBN/Hibit-tagged CRISPR BRD2 (unknown origin) expressed in HEK293 cells coexpressing LgBiT assessed as degradation of BRD2 by […] glo-max assay relative to control; format: cell-based
# [15] = biological target: T4, Protein cereblon/Bromodomain-containing protein 3 (Homo sapiens); test: PROTAC activity at CRBN/Hibit-tagged CRISPR BRD3 (unknown origin) expressed in HEK293 cells co-expressing LgBiT assessed as degradation of BRD3 by […] glo-max assay relative to control; format: cell-based
# [16] = biological target: T1, Protein cereblon/Bromodomain-containing protein 4; test: PROTAC activity at CRBN/Hibit-tagged CRISPR BRD4 (unknown origin) expressed in HEK293 cells co-expressing LgBiT assessed as degradation of BRD4 by […] glo-max assay relative to control; format: cell-based
# [17] = biological target: T3, Protein cereblon/Bromodomain-containing protein 2 (Homo sapiens); test: PROTAC activity at CRBN/Hibit-tagged CRISPR BRD2 (unknown origin) expressed in HEK293 cells coexpressing LgBiT assessed as degradation of BRD2 measured after 10 to 14 hrs by […] glo-max assay; format: cell-based; conditions: time 10-14 hrs
# [18] = biological target: T4, Protein cereblon/Bromodomain-containing protein 3 (Homo sapiens); test: PROTAC activity at CRBN/Hibit-tagged CRISPR BRD3 (unknown origin) expressed in HEK293 cells co-expressing LgBiT assessed as degradation of BRD3 measured after 13 to 16 hrs by […] glo-max assay; format: cell-based; conditions: time 13-16 hrs
# [19] = biological target: T1, Protein cereblon/Bromodomain-containing protein 4; test: PROTAC activity at CRBN/Hibit-tagged CRISPR BRD4 (unknown origin) expressed in HEK293 cells co-expressing LgBiT assessed as degradation of BRD4 measured after 18 to 24 hrs by […] glo-max assay; format: cell-based; conditions: time 18-24 hrs
# [20] = biological target: Protein cereblon (Homo sapiens) (UniProt Q96SW2); test: Binding affinity to CRBN (unknown origin)
# [21] = Downregulation of BRD2 protein level in human MV4-11 cells at 100 nM incubated for 4 hrs relative to control; format: functional
# [22] = Downregulation of BRD3 protein level in human MV4-11 cells at 100 nM incubated for 4 hrs relative to control; format: functional
# [23] = Downregulation of BRD4 protein level in human MV4-11 cells at 100 nM incubated for 4 hrs relative to control; format: functional
# [24] = Effect on BRD3 level in human MV4-11 cells assessed as fold change at 100 nM measured after 4 hrs; format: functional
# [25] = Effect on BRD4 level in human MV4-11 cells assessed as fold change at 100 nM measured after 4 hrs; format: functional
# [26] = Effect on BRD2 level in human MV4-11 cells assessed as fold change at 100 nM measured after 4 hrs; format: functional
# [27] = Effect on MYC level in human MV4-11 cells assessed as fold change at 100 nM measured after 4 hrs; format: functional
# [28] = Effect on FYTTD1 level in human MV4-11 cells assessed as fold change at 100 nM measured after 4 hrs; format: functional
# [29] = Effect on CCNF level in human MV4-11 cells assessed as fold change at 100 nM measured after 4 hrs; format: functional
# [30] = Effect on CDC42EP3 level in human MV4-11 cells assessed as fold change at 100 nM measured after 4 hrs; format: functional
# [31] = Effect on MCL1 level in human MV4-11 cells assessed as fold change at 100 nM measured after 4 hrs; format: functional
# [32] = Effect on PLAU level in human MV4-11 cells assessed as fold change at 100 nM measured after 4 hrs; format: functional
# [33] = Effect on ZFP36L2 level in human MV4-11 cells assessed as fold change at 100 nM measured after 4 hrs; format: functional
# [34] = Effect on FGL2 level in human MV4-11 cells assessed as fold change at 100 nM measured after 4 hrs; format: functional
# [35] = Effect on NSA2 level in human MV4-11 cells assessed as fold change at 100 nM measured after 4 hrs; format: functional
# [36] = Effect on CCND3 level in human MV4-11 cells assessed as fold change at 100 nM measured after 4 hrs; format: functional
# [37] = Effect on AURKA level in human MV4-11 cells assessed as fold change at 100 nM measured after 4 hrs; format: functional
# [38] = Effect on NOP53 level in human MV4-11 cells assessed as fold change at 100 nM measured after 4 hrs; format: functional
# [39] = Effect on PLK1 level in human MV4-11 cells assessed as fold change at 100 nM measured after 4 hrs; format: functional
# [40] = Effect on RNF166 level in human MV4-11 cells assessed as fold change at 100 nM measured after 4 hrs; format: functional
# [41] = Effect on ZBTB21 level in human MV4-11 cells assessed as fold change at 100 nM measured after 4 hrs; format: functional
# [42] = Effect on TP53 level in human MV4-11 cells assessed as fold change at 100 nM measured after 4 hrs; format: functional
# [43] = Permeability in MDCK-II cells incubated for 1 hr by UPLC/MS/UV analysis; format: ADME, cell-based, Canis lupus familiaris; conditions: dog, read-out: permeability
# [44] = Stability in mouse plasma assessed as half life by UPLC-MS/MS analysis; format: ADME, cell-free
# [45] = AUC last in female CD1 mouse at 10 mg/kg, po measured upto 24 hrs by LC-MS/MS analysis; format: ADME, organism-based; conditions: in vivo
# [46] = Half life in mouse at 50 mg/kg, ip; format: ADME, organism-based; conditions: in vivo
# [47] = biological target: T2, Protein cereblon/Bromodomain-containing protein 4/DNA damage-binding protein 1 (Homo sapiens); test: Binding affinity to his-tagged CRBN/DDB1/GST-tagged BRD4 (49 to 170 residues)(unknown origin) assessed as ternary complex formation by measuring AUC incubated for 1 hr by luminescence based Alphascreen assay; format: protein assay
# [48] = system: MV4-11; test: Upregulation of ZBTB21 level in human MV4-11 cells at 100 nM incubated for 30 mins; format: functional, cell-based
# [49] = system: MV4-11; test: Upregulation of MIER1 level in human MV4-11 cells at 100 nM incubated for 30 mins; format: functional, cell-based
compound,measurement,setting,value
Cc1sc2c(c1C)C(c1ccc(Cl)cc1)=N[C@@H](CC(=O)N1CCC(CN3CCN(c4ccc5c(c4)C(=O)N(C4CCC(=O)NC4=O)C5=O)CC3)CC1)c1nnc(C)n1-2 (stereo partly drawn),DC50,[1],1.08 nM
same,Emax,[2],95.5%
same,Activity,[3],0.204 fRLU/hr
same,IC50,[4],0.82 nM
same,IC50,[5],9.29 nM
same,solubility kinetic,[6],10.5 µM
same,half-life,[7],9.6 min
same,Activity,[8],Active
same,Activity,[9],Non-toxic
same,Cmax,[10],1160 ng/mL
same,Activity,[11],Active
same,Activity,[12],Active
same,Activity,[13],Active
same,Activity,[14],> 95%
same,Activity,[15],> 95%
same,Activity,[16],> 90%
same,Activity,[17],Active
same,Activity,[18],Active
same,Activity,[19],Active
same,Activity,[20],Active
same,Activity,[21],90%
same,Activity,[22],90%
same,Activity,[23],90%
same,fold change (FC),[24],-4.09
same,fold change (FC),[25],-4.11
same,fold change (FC),[26],-3.3
same,fold change (FC),[27],-1.29
same,fold change (FC),[28],-1.73
same,fold change (FC),[29],-1.64
same,fold change (FC),[30],-1.24
same,fold change (FC),[31],-1.17
same,fold change (FC),[32],-1.1
same,fold change (FC),[33],-1.07
same,fold change (FC),[34],-1
same,fold change (FC),[35],-1.1
same,fold change (FC),[36],-0.9
same,fold change (FC),[37],-0.95
same,fold change (FC),[38],-0.88
same,fold change (FC),[39],-0.79
same,fold change (FC),[40],-1.26
same,fold change (FC),[41],-0.06
same,fold change (FC),[42],1.91
same,Papp at 1 h,[43],0.79 ×10⁻⁶ cm/s
same,half-life,[44],1070 min
same,AUC(0-t) at 24 h,[45],3320 ng·h/mL
Cc1sc2c(c1C)C(c1ccc(Cl)cc1)=N[C@@H](CC(=O)NCCCCCNC(=O)COc1ccc(C3CCC(=O)NC3=O)cc1)c1nnc(C)n1-2 (stereo partly drawn),DC50,[1],25 nM
same,Emax,[2],75.7%
same,solubility kinetic,[6],24.4 µM
same,half-life,[7],2.4 min
same,half-life,[46],25.8 min
same,Activity,[9],Non-toxic
same,AUC,[47],298000
Cc1sc2c(c1C)C(c1ccc(Cl)cc1)=N[C@@H](CC(=O)N1CCC(CN3CCN(c4ccc5c(c4)oc(=O)n5C4CCC(=O)NC4=O)CC3)CC1)c1nnc(C)n1-2 (stereo partly drawn),DC50,[1],0.25 nM
same,Emax,[2],94%
same,Activity,[3],0.395 fRLU/hr
same,IC50,[4],0.04 nM
same,IC50,[5],0.38 nM
same,solubility kinetic,[6],14.8 µM
same,Activity,[8],Active
same,Activity,[9],Non-toxic
same,Cmax,[10],70 ng/mL
same,Activity,[11],Active
same,Activity,[12],Active
same,Activity,[13],Active
same,Activity,[14],> 95%
same,Activity,[15],> 95%
same,Activity,[16],> 90%
same,Activity,[17],Active
same,Activity,[18],Active
same,Activity,[19],Active
same,Activity,[20],Active
same,Activity,[21],90%
same,Activity,[22],90%
same,Activity,[23],90%
same,fold change (FC),[24],-4.05
same,fold change (FC),[25],-3.75
same,fold change (FC),[26],-3.2
same,fold change (FC),[27],-2.38
same,fold change (FC),[28],-1.64
same,fold change (FC),[29],-1.74
same,fold change (FC),[30],-1.17
same,fold change (FC),[31],-1.14
same,fold change (FC),[32],-1.13
same,fold change (FC),[33],-1.14
same,fold change (FC),[34],-0.81
same,fold change (FC),[35],-1.09
same,fold change (FC),[36],-1.03
same,fold change (FC),[37],-0.94
same,fold change (FC),[38],-0.92
same,fold change (FC),[39],-0.8
same,fold change (FC),[40],-0.64
same,fold change (FC),[41],-1.77
same,fold change (FC),[42],1.94
same,Activity,[48],Active
same,Activity,[49],Active
same,Papp at 1 h,[43],1.2 ×10⁻⁶ cm/s
same,half-life,[44],822 min
same,AUC(0-t) at 24 h,[45],181 ng·h/mL
